Measured values from ChEMBL document CHEMBL4507287, “Data for DCP probe MRL-650” (2021).

Tests used:
[1] = biological target: MAP kinase-activated protein kinase 2 (Homo sapiens) (UniProt P49137); settings: Compound concentration 1000.0 nM
[2] = biological target: Casein kinase I isoform gamma-3 (Homo sapiens) (UniProt Q9Y6M4); settings: Compound concentration 1000.0 nM
[3] = biological target: Inhibitor of nuclear factor kappa-B kinase subunit epsilon (Homo sapiens) (UniProt Q14164); settings: Compound concentration 1000.0 nM
[4] = tested on: Mast/stem cell growth factor receptor Kit (Homo sapiens), P10721 [A829P]; settings: Compound concentration 1000.0 nM
[5] = biological target: Tyrosine-protein kinase BTK (Homo sapiens) (UniProt Q06187); settings: Compound concentration 1000.0 nM
[6] = biological target: Dual specificity mitogen-activated protein kinase kinase 5 (Homo sapiens) (UniProt Q13163); settings: Compound concentration 1000.0 nM
[7] = biological target: Receptor-type tyrosine-protein kinase FLT3 (Homo sapiens) (UniProt P36888); settings: Compound concentration 1000.0 nM
[8] = biological target: Mitogen-activated protein kinase 1 (Homo sapiens) (UniProt P28482); settings: Compound concentration 1000.0 nM
[9] = biological target: Mitogen-activated protein kinase kinase kinase 6 (Homo sapiens) (UniProt O95382); settings: Compound concentration 1000.0 nM
[10] = biological target: Tyrosine-protein kinase Fgr (Homo sapiens) (UniProt P09769); settings: Compound concentration 1000.0 nM
[11] = biological target: MAP kinase-interacting serine/threonine-protein kinase 1 (Homo sapiens) (UniProt Q9BUB5); settings: Compound concentration 1000.0 nM
[12] = biological target: Mitogen-activated protein kinase kinase kinase 20 (Homo sapiens) (UniProt Q9NYL2); settings: Compound concentration 1000.0 nM
[13] = biological target: 1-phosphatidylinositol 3-phosphate 5-kinase (Homo sapiens) (UniProt Q9Y2I7); settings: Compound concentration 1000.0 nM
[14] = biological target: Non-receptor tyrosine-protein kinase TYK2 (Homo sapiens) (UniProt P29597); settings: Compound concentration 1000.0 nM
[15] = biological target: Cyclin-dependent kinase 8 (Homo sapiens) (UniProt P49336); settings: Compound concentration 1000.0 nM
[16] = biological target: Mitogen-activated protein kinase kinase kinase 9 (Homo sapiens) (UniProt P80192); settings: Compound concentration 1000.0 nM
[17] = biological target: Rhodopsin kinase GRK1 (Homo sapiens) (UniProt Q15835); settings: Compound concentration 1000.0 nM
[18] = biological target: Serine/threonine-protein kinase B-raf (Homo sapiens) (UniProt P15056); settings: Compound concentration 1000.0 nM
[19] = biological target: 5-hydroxytryptamine receptor 3A (Homo sapiens) (UniProt P46098); settings: Compound concentration 10.0 uM
[20] = biological target: Bone morphogenetic protein receptor type-2 (Homo sapiens) (UniProt Q13873); settings: Compound concentration 1000.0 nM
[21] = biological target: Calcium/calmodulin-dependent protein kinase type 1B (Homo sapiens) (UniProt Q6P2M8); settings: Compound concentration 1000.0 nM
[22] = biological target: Ribosomal protein S6 kinase alpha-5 (Homo sapiens) (UniProt O75582); settings: Compound concentration 1000.0 nM
[23] = biological target: Tyrosine-protein kinase Fes/Fps (Homo sapiens) (UniProt P07332); settings: Compound concentration 1000.0 nM
[24] = biological target: Mitogen-activated protein kinase kinase kinase 4 (Homo sapiens) (UniProt Q9Y6R4); settings: Compound concentration 1000.0 nM
[25] = biological target: Mitogen-activated protein kinase kinase kinase 19 (Homo sapiens) (UniProt Q56UN5); settings: Compound concentration 1000.0 nM
[26] = biological target: Serine/threonine-protein kinase haspin (Homo sapiens) (UniProt Q8TF76); settings: Compound concentration 1000.0 nM
[27] = biological target: Cyclin-dependent kinase 4 (Homo sapiens) (UniProt P11802); settings: Compound concentration 1000.0 nM
[28] = tested on: Receptor-type tyrosine-protein kinase FLT3 (Homo sapiens), P36888 [K663Q]; settings: Compound concentration 1000.0 nM
[29] = biological target: Tyrosine-protein kinase CSK (Homo sapiens) (UniProt P41240); settings: Compound concentration 1000.0 nM
[30] = biological target: Beta-2 adrenergic receptor (Homo sapiens) (UniProt P07550); settings: Compound concentration 10.0 uM
[31] = biological target: Ribosomal protein S6 kinase alpha-6 (Homo sapiens) (UniProt Q9UK32); settings: Compound concentration 1000.0 nM
[32] = biological target: Serine/threonine-protein kinase Nek6 (Homo sapiens) (UniProt Q9HC98); settings: Compound concentration 1000.0 nM
[33] = biological target: Cyclin-dependent kinase 16 (Homo sapiens) (UniProt Q00536); settings: Compound concentration 1000.0 nM
[34] = biological target: Homeodomain-interacting protein kinase 2 (Homo sapiens) (UniProt Q9H2X6); settings: Compound concentration 1000.0 nM
[35] = biological target: Homeodomain-interacting protein kinase 3 (Homo sapiens) (UniProt Q9H422); settings: Compound concentration 1000.0 nM
[36] = biological target: BMP-2-inducible protein kinase (Homo sapiens) (UniProt Q9NSY1); settings: Compound concentration 1000.0 nM
[37] = biological target: Serine/threonine-protein kinase Nek5 (Homo sapiens) (UniProt Q6P3R8); settings: Compound concentration 1000.0 nM
[38] = biological target: Serine/threonine-protein kinase tousled-like 1 (Homo sapiens) (UniProt Q9UKI8); settings: Compound concentration 1000.0 nM
[39] = biological target: Serine/threonine-protein kinase PLK1 (Homo sapiens) (UniProt P53350); settings: Compound concentration 1000.0 nM
[40] = biological target: Serine/threonine-protein kinase TAO1 (Homo sapiens) (UniProt Q7L7X3); settings: Compound concentration 1000.0 nM
[41] = biological target: Ephrin type-B receptor 6 (Homo sapiens) (UniProt O15197); settings: Compound concentration 1000.0 nM
[42] = tested on: Hepatocyte growth factor receptor (Homo sapiens), P08581 [Y1235D]; settings: Compound concentration 1000.0 nM
[43] = biological target: Cyclin-dependent kinase 11A (Homo sapiens) (UniProt Q9UQ88); settings: Compound concentration 1000.0 nM
[44] = biological target: Macrophage colony-stimulating factor 1 receptor (Homo sapiens) (UniProt P07333); settings: Compound concentration 1000.0 nM
[45] = biological target: MAP/microtubule affinity-regulating kinase 3 (Homo sapiens) (UniProt P27448); settings: Compound concentration 1000.0 nM

Serine/threonine-protein kinase Nek6 (Homo sapiens), sequence (Q9HC98 whole entry): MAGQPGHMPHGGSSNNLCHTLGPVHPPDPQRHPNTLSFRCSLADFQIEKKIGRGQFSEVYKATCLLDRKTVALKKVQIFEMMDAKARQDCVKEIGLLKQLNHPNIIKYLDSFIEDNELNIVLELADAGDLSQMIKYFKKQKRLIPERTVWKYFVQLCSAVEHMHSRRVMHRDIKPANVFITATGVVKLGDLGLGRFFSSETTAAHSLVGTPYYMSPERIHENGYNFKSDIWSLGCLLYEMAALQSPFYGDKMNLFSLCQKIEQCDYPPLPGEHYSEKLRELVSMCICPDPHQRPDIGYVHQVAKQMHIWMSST
Serine/threonine-protein kinase TAO1 (Homo sapiens), sequence (Q7L7X3 whole entry): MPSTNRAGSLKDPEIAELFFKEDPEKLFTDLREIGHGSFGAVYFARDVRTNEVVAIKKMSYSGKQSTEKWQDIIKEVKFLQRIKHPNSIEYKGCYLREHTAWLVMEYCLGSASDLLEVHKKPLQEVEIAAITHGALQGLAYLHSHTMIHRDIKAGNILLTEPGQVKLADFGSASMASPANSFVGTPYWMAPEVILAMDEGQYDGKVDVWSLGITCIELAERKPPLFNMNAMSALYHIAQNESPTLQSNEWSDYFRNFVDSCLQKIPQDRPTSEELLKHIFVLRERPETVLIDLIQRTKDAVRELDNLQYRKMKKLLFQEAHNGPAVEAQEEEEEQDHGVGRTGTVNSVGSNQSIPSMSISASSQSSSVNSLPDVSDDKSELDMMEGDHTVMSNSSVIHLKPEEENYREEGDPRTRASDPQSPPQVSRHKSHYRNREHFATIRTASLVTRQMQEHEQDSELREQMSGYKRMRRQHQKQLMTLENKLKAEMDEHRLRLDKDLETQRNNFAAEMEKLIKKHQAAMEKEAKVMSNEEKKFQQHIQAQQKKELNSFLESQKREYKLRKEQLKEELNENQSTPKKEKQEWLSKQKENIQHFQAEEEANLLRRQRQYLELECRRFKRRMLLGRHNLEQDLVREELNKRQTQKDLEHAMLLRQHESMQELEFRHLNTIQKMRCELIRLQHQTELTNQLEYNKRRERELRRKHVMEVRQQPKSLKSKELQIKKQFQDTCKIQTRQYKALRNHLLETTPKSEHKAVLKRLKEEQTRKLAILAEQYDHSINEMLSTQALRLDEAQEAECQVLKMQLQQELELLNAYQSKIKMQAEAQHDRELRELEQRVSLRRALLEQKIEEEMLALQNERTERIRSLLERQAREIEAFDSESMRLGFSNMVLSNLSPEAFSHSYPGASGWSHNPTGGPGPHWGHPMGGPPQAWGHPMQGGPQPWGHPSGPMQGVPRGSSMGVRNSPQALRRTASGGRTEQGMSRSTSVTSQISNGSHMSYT
5-hydroxytryptamine receptor 3A (Homo sapiens), sequence (P46098 whole entry): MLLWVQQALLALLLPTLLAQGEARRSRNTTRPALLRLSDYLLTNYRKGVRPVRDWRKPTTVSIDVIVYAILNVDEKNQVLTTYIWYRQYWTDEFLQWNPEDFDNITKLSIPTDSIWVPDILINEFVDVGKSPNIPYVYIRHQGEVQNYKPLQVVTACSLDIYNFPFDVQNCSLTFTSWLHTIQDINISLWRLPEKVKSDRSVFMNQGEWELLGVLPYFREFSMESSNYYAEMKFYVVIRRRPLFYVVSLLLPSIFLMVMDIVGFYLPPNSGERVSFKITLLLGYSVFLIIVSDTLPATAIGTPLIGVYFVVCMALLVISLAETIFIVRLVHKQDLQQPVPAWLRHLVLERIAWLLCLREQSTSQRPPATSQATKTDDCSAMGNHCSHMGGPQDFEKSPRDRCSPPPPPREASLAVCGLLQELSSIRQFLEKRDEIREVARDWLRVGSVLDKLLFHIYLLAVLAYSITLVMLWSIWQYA
MAP kinase-interacting serine/threonine-protein kinase 1 (Homo sapiens), sequence (Q9BUB5 whole entry, looked up): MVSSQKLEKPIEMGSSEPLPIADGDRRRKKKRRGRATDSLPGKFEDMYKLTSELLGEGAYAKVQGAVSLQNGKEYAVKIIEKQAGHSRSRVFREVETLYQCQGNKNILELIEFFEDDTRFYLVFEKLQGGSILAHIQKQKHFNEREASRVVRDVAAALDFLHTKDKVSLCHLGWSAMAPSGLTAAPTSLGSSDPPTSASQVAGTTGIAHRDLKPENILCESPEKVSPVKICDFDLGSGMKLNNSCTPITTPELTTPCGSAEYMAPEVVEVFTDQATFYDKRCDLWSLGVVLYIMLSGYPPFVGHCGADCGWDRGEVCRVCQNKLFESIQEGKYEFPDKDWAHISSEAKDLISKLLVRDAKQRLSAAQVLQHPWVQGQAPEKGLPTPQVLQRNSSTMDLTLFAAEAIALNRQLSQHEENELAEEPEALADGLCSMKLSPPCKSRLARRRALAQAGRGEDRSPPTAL
Mitogen-activated protein kinase kinase kinase 20 (Homo sapiens), sequence (Q9NYL2 2-800 limits assumed): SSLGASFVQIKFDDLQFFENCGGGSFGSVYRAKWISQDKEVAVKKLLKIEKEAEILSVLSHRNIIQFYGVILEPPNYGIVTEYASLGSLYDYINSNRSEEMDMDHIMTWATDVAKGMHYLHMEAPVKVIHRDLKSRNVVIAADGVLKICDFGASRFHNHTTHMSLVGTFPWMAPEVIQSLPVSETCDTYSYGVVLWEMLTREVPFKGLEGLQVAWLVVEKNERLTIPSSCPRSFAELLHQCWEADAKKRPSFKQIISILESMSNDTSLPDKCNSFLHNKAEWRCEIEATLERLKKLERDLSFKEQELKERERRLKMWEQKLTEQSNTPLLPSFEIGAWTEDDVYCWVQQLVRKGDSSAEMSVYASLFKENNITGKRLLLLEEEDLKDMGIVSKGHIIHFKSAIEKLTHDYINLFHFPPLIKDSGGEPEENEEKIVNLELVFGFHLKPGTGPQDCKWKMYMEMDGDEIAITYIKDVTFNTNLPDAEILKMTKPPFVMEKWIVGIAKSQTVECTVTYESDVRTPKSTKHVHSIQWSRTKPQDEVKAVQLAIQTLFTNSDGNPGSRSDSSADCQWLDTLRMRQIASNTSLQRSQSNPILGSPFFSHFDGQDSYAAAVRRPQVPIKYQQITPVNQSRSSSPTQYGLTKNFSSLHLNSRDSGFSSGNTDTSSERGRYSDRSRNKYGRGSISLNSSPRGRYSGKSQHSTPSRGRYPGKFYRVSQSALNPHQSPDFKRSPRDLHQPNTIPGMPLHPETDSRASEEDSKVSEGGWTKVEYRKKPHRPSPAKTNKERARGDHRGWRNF
Serine/threonine-protein kinase tousled-like 1 (Homo sapiens), sequence (Q9UKI8 whole entry): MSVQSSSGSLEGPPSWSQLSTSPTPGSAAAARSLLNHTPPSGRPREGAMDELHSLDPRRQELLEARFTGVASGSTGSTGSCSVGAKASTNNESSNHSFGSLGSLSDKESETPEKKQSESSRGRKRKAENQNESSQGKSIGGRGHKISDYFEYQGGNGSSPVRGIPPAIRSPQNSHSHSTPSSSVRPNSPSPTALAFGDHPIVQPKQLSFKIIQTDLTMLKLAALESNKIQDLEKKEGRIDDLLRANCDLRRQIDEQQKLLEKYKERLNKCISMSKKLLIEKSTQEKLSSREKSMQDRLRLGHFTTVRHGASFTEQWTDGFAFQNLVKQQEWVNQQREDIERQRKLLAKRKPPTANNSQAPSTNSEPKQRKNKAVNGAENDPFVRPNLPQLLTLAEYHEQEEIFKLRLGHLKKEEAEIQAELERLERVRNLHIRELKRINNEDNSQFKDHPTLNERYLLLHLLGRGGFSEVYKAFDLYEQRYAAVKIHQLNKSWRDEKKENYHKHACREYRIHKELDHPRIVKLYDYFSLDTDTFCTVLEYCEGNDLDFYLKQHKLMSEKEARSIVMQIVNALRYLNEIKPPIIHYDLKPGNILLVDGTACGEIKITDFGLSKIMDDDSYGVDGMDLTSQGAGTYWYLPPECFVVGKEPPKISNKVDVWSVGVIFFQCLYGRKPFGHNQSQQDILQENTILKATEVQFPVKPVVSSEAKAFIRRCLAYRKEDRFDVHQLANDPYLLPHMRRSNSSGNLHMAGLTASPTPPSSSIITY
Macrophage colony-stimulating factor 1 receptor (Homo sapiens), sequence (P07333 whole entry): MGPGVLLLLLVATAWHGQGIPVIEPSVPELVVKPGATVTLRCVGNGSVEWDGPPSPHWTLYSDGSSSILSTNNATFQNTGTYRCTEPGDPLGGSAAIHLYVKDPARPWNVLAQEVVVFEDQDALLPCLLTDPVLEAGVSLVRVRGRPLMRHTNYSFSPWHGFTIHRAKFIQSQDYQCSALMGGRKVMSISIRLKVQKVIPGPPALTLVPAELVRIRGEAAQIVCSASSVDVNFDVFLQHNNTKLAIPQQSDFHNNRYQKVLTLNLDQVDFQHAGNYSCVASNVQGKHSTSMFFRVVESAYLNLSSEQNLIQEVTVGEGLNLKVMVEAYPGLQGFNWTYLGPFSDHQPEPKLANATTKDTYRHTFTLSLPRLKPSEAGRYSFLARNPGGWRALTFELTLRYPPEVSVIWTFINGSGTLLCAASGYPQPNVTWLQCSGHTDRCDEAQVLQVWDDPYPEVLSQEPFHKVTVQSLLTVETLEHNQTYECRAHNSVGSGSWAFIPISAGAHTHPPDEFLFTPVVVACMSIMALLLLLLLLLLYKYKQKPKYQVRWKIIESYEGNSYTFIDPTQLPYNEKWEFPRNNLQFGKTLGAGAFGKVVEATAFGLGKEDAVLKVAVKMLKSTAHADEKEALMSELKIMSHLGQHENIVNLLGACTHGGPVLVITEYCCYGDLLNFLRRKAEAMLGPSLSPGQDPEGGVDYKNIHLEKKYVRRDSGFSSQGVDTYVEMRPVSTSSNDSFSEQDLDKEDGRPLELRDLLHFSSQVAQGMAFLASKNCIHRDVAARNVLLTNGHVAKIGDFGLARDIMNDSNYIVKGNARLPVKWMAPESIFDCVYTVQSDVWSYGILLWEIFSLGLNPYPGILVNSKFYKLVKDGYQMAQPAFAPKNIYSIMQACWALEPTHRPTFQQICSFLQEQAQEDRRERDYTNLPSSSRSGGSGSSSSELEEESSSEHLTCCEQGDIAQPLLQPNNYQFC

CC(=O)c1c(NS(C)(=O)=O)c2cc(-c3ccc(Cl)cc3)c(-c3ccc(Cl)cc3Cl)nc2n(C)c1=O [MRL-CB1-NC]
inactive: residual activity [1] 80% | residual activity [2] 100% | residual activity [3] 73% | residual activity [4] 96% | residual activity [5] 84% | residual activity [6] 80% | residual activity [7] 96% | residual activity [8] 100% | residual activity [9] 83% | residual activity [10] 100% | residual activity [11] 100% | residual activity [12] 92% | residual activity [13] 66% | residual activity [14] 94% | residual activity [15] 83% | residual activity [16] 100% | residual activity [17] 84% | residual activity [18] 90% | inhibition [19] 3.2% | residual activity [20] 100% | residual activity [21] 100% | residual activity [22] 72% | residual activity [23] 87% | residual activity [24] 95% | residual activity [25] 85% | residual activity [26] 92% | residual activity [27] 100% | residual activity [28] 100% | residual activity [29] 100% | inhibition [30] 5.51% | residual activity [31] 76% | residual activity [32] 100% | residual activity [33] 76% | residual activity [34] 87% | residual activity [35] 88% | residual activity [36] 100% | residual activity [37] 100% | residual activity [38] 95% | residual activity [39] 87% | residual activity [40] 92% | residual activity [41] 100% | residual activity [42] 95% | residual activity [43] 98% | residual activity [44] 100% | residual activity [45] 100%

CC(=O)Nc1c(C(C)=O)c(=O)n(C)c2nc(-c3ccc(Cl)cc3Cl)c(-c3ccc(Cl)cc3)cc12 [NAPHTHYRIDINONE]
inactive: residual activity [1] 100% | residual activity [2] 100% | residual activity [3] 80% | residual activity [4] 100% | residual activity [5] 88% | residual activity [6] 94% | residual activity [7] 100% | residual activity [8] 100% | residual activity [9] 94% | residual activity [10] 100% | residual activity [11] 100% | residual activity [12] 100% | residual activity [13] 100% | residual activity [14] 100% | residual activity [15] 100% | residual activity [16] 100% | residual activity [17] 78% | residual activity [18] 100% | inhibition [19] 5.67% | residual activity [20] 100% | residual activity [21] 100% | residual activity [22] 86% | residual activity [23] 100% | residual activity [24] 89% | residual activity [25] 100% | residual activity [26] 100% | residual activity [27] 100% | residual activity [28] 100% | residual activity [29] 100% | inhibition [30] 12.6% | residual activity [31] 88% | residual activity [32] 100% | residual activity [33] 100% | residual activity [34] 100% | residual activity [35] 97% | residual activity [36] 100% | residual activity [37] 100% | residual activity [38] 100% | residual activity [39] 100% | residual activity [40] 89% | residual activity [41] 100% | residual activity [42] 100% | residual activity [43] 100% | residual activity [44] 100% | residual activity [45] 100%
